In general, pKi refers to the Ki on a negative log10 scale, so that one unit is a factor of ten.

pKi: −log10 of the molar value. Some results are limits rather than exact numbers.

The test system of one test is human σ1 receptor and human μ-opioid receptor. Put plainly: Human σ1 receptor radioligand assay and human μ-opioid receptor radioligand assay (μ and σ1 dual binding). Also noted: key to μ and σ1 dual binding: +: Both Ki-μ and Ki-σ1>=500 nM; ++: One Ki<500 nM while the other Ki is >=500 nM; +++: Both Ki-μ and Ki-σ1<500 nM; ++++: Both Ki-μ and Ki-σ1<100 nM.
Conditions: not given
Turning to `CC(=O)N1CCc2ccccc2C12CCN(CCOc1ccccn1)CC2` [Example 42, 1-(1′-(2-(Pyridin-2-yloxy)ethyl)-3,4-dihydro-2H-spiro[isoquinoline-1,4′-piperidine]-2-yl)ethanone], the “μ and σ1 dual binding” value is “++”. Molecule `CC(=O)N1CCc2ccccc2C12CCN(CCOCC(C)C)CC2` [Example 31] showed a pKi of more than 6.30. For the molecule `CN(C(=O)CN1CCC2(CC1)c1ccccc1CCN2C)c1ccccc1` [Example 72, N-methyl-2-(2-methyl-3,4-dihydro-2H-spiro[isoquinoline-1,4′-piperidine]-1′-yl)-N-phenylacetamide], the “μ and σ1 dual binding” value is “++”. Same read-out and setting: the entry for `CN1CCc2ccccc2C12CCN(CC(=O)N1CC[C@@H](F)C1)CC2` [Example 95, (R)-1-(3-fluoropyrrolidin-1-yl)-2-(2-methyl-3,4-dihydro-2H-spiro[isoquinoline-1,4′-piperidine]-1′-yl)ethanone] is “++”.

As for `OCCN1CCc2ccccc2C12CCN(CCc1ccccc1)CC2` [Example 123, 2-(1′-Phenethyl-3,4-dihydro-2H-spiro[isoquinoline-1,4′-piperidin]-2-yl)ethanol], the pKi is more than 7.00.

`CC(=O)N1CCc2ccccc2C12CCN(CC1CCCCC1)CC2` [Example 13, 1-(1′-(cyclohexylmethyl)-3,4-dihydro-2H-spiro[isoquinoline-1,4′-piperidine]-2-yl)ethanone] showed a negative-log Ki (pKi) of more than 6.30. As to `CC(C(=O)N1CCC(F)CC1)N1CCC2(CC1)c1ccccc1CCN2C` (centres unmarked) [Example 86, 1-(4-fluoropiperidin-1-yl)-2-(2-methyl-3,4-dihydro-2H-spiro[isoquinoline-1,4′-piperidine]-1′-yl)propan-1-one], the “μ and σ1 dual binding” value was “++”. As to `CN1CCc2ccccc2C12CCN(Cc1ccncc1)CC2` [Example 83, 2-methyl-1′-(pyridin-4-ylmethyl)-3,4-dihydro-2H-spiro[isoquinoline-1,4′-piperidine]], the “μ and σ1 dual binding” value is given as “++”. On the same count and under the same terms, the entry for `CN1CCc2ccccc2C12CCN(CC(O)c1cccnc1)CC2` (centres unmarked) [Example 96, 2-(2-methyl-3,4-dihydro-2H-spiro[isoquinoline-1,4′-piperidine]-1′-yl)-1-(pyridin-3-yl)etanol] is “++”.

In turn, `CN1CCc2ccccc2C12CCN(CCC1CCOCC1)CC2` [Example 74, 2-methyl-1′-(2-(tetrahydro-2H-pyran-4-yl)ethyl)-3,4-dihydro-2H-spiro[isoquinoline-1,4′-piperidine]] showed a negative-log Ki (pKi) of more than 6.30. Regarding `CCN1CCc2ccccc2C12CCN(CCN1CCOCC1)CC2` [Example 148, 4-(2-(2-ethyl-3,4-dihydro-2H-spiro[isoquinoline-1,4′-piperidine]-1′-yl)ethyl)morpholine], the “μ and σ1 dual binding” value was “++”. Still for that read-out and setting: next, `CC(C)N(C(=O)CN1CCC2(CC1)c1ccccc1CCN2C)C(C)C` [Example 102, N,N-diisopropyl-2-(2-methyl-3,4-dihydro-2H-spiro[isoquinoline-1,4′-piperidine]-1′-yl)acetamide]: “++”.

Consider `CN1CCc2ccccc2C12CCN(CC(=O)N1CCC(C(F)(F)F)CC1)CC2` [Example 91, 2-(2-methyl-3,4-dihydro-2H-spiro[isoquinoline-1,4′-piperidine]-1′-yl)-1-(4-(trifluoromethyl)piperidin-1-yl)ethanone], for which the pKi was more than 6.30. In the case of `CN1CCc2ccccc2C12CCN(CCc1cccc(NS(C)(=O)=O)c1)CC2` [Example 118, N-(3-(2-(2-Methyl-3,4-dihydro-2H-spiro[isoquinoline-1,4′-piperidin]-1′-yl)ethyl)phenyl)methanesulfonamide], the pKi was more than 7.00. The same measure, in the same setting: next, `CCN1CCc2ccccc2C12CCN(CC(=O)N1CCCC(F)(F)C1)CC2` [Example 151, 1-(3,3-difluoropiperidin-1-yl)-2-(2-ethyl-3,4-dihydro-2H-spiro[isoquinoline-1,4′-piperidine]-1′-yl)ethanone]: more than 6.30. Same read-out and setting: next, `CN(C)C(=O)CCN1CCC2(CC1)c1ccccc1CCN2C` [Example 68, N,N-dimethyl-3-(2-methyl-3,4-dihydro-2H-spiro[isoquinoline-1,4′-piperidine]-1′-yl)propanamide]: more than 6.30. As to `CCCN(CC)C(=O)CN1CCC2(CC1)c1ccccc1CCN2C` [Example 105, N-ethyl-2-(2-methyl-3,4-dihydro-2H-spiro[isoquinoline-1,4′-piperidine]-1′-yl)-N-propylacetamide], the “μ and σ1 dual binding” value is “++”. Same read-out and setting: the entry for `CCC(CC)N(CC)C(=O)CN1CCC2(CC1)c1ccccc1CCN2C` [Example 109, N-ethyl-2-(2-methyl-3,4-dihydro-2H-spiro[isoquinoline-1,4′-piperidine]-1′-yl)-N-(pentan-3-yl)acetamide] is “++”. `CCC(CC)N(C)C(=O)CN1CCC2(CC1)c1ccccc1CCN2C` [Example 111, N-methyl-2-(2-methyl-3,4-dihydro-2H-spiro[isoquinoline-1,4′-piperidine]-1′-yl)-N-(pentan-3-yl)acetamide]: the negative logarithm of the Ki (pKi) was more than 6.30.

Molecule `CN1CCc2ccccc2C12CCN(CC(=O)N1CCCCC1)CC2` [Example 71, 2-(2-methyl-3,4-dihydro-2H-spiro[isoquinoline-1,4′-piperidine]-1′-yl)-1-(piperidin-1-yl)ethanone] had a negative-log Ki (pKi) of more than 6.30. As to `CN1CCc2ccccc2C12CCN(C[C@H](O)c1ccncc1)CC2` [Example 99, (R)-2-(2-methyl-3,4-dihydro-2H-spiro[isoquinoline-1,4′-piperidine]-1′-yl)-1-(pyridin-4-yl)ethanol], the pKi was more than 6.30. As for `CCN1CCc2ccccc2C12CCN(CC(=O)N(C)C)CC2` [Example 153, 2-(2-ethyl-3,4-dihydro-2H-spiro[isoquinoline-1,4′-piperidine]-1′-yl)-N,N-dimethylacetamide], the “μ and σ1 dual binding” value is reported as “++”.

As for `CN1Cc2ccccc2C12CCN(CC1CCOCC1)CC2` [Example 141, 2-Methyl-1′-((tetrahydro-2H-pyran-4-yl)methyl)spiro[isoindoline-1,4′-piperidine]], the “μ and σ1 dual binding” value is reported as “++”. The same measure, in the same setting: the entry for `CC(=O)N1CCc2ccccc2C12CCN(CCOc1ccccc1)CC2` [Example 20, 1-(1′-(2-phenoxyethyl)-3,4-dihydro-2H-spiro[isoquinoline-1,4′-piperidine]-2-yl)ethanone] is “++”. For the molecule `CN1CCc2ccccc2C12CCN(CC1CCCCC1)CC2` [Example 66, 1′-(cyclohexylmethyl)-2-methyl-3,4-dihydro-2H-spiro[isoquinoline-1,4′-piperidine]], the pKi was more than 6.30. Same read-out and setting: next, `CC(=O)N1CCc2ccccc2C12CCN(CCOCC1CC1)CC2` [Example 30, 1-(1′-(2-(cyclopropylmethoxy)ethyl)-3,4-dihydro-2H-spiro[isoquinoline-1,4′-piperidine]-2-yl)ethanone]: more than 6.30.

`CN1CCc2ccccc2C12CCN(C[C@@H](O)c1ccncc1F)CC2` [Example 143, (S)-1-(3-fluoropyridin-4-yl)-2-(2-methyl-3,4-dihydro-2H-spiro[isoquinoline-1,4′-piperidine]-1′-yl)ethanol] gave a pKi of more than 6.30. For the molecule `CN1CCc2ccccc2C12CCN(CC(=O)N1CCCOCC1)CC2` [Example 57, 2-(2-methyl-3,4-dihydro-2H-spiro[isoquinoline-1,4′-piperidine]-1′-yl)-1-(1,4-oxazepan-4-yl)ethanone], the “μ and σ1 dual binding” value is “++”. Molecule `CCN1CCc2ccccc2C12CCN(CC(=O)N1CCC(F)CC1)CC2` [Example 150, 2-(2-ethyl-3,4-dihydro-2H-spiro[isoquinoline-1,4′-piperidine]-1′-yl)-1-(4-fluoropiperidin-1-yl)ethanone] showed a pKi of more than 6.30.

The test is the same for the next values; noted with them: combined class for Ki-μ ([3H]-DAMGO, CHO-K1 membranes) and Ki-σ1 ([3H](+)-pentazocine, HEK-293 membranes).
`CN1CCc2ccccc2C12CCN(CCN1CCOCC1=O)CC2` [Example 80, 4-(2-(2-methyl-3,4-dihydro-2H-spiro[isoquinoline-1,4′-piperidine]-1′-yl)ethyl)morpholin-3-one]: the negative-log Ki (pKi) is not above 6.30. Same read-out and setting: next, `CC(=O)N1CCc2ccccc2C12CCN(CCO)CC2` [Example 41, 1-(1′-(2-Hydroxyethyl)-3,4-dihydro-2H-spiro[isoquinoline-1,4′-piperidine]-2-yl)ethanone]: not above 6.30. Same read-out and setting: the figure for `CC(C)CN(C(=O)CN1CCC2(CC1)c1ccccc1CCN2C)C(C)C` [Example 110, N-isobutyl-N-isopropyl-2-(2-methyl-3,4-dihydro-2H-spiro[isoquinoline-1,4′-piperidine]-1′-yl)acetamide] is not above 6.30; for `O=C(N1CCc2ccccc2C12CCN(CCc1ccccc1)CC2)C(F)(F)F` [Example 132, 2,2,2-Trifluoro-1-(1′-phenethyl-3,4-dihydro-2H-spiro[isoquinoline-1,4′-piperidine]-2-yl)ethanone] it is not above 6.30. For the molecule `CC(=O)N1CCc2ccccc2C12CCN(CCC(=O)N(C)C)CC2` [Example 22, 3-(2-acetyl-3,4-dihydro-2H-spiro[isoquinoline-1,4′-piperidine]-1′-yl)-N,N-dimethylpropanamide], the negative-log Ki (pKi) was not above 6.30.

On to `CN1CC(C)(C)c2ccccc2C12CCN(CC(=O)N1CCCCC1)CC2` [Example 138, 1-(Piperidin-1-yl)-2-(2,4,4-trimethyl-3,4-dihydro-2H-spiro[isoquinoline-1,4′-piperidine]-1′-yl)ethanone], for which the pKi was not above 6.30. Still for that read-out and setting: next, `CC(=O)N1CCc2ccccc2C12CCN(CC(=O)N1CCOCC1)CC2` [Example 34, 2-(2-acetyl-3,4-dihydro-2H-spiro[isoquinoline-1,4′-piperidine]-1′-yl)-1-morpholinoethanone]: not above 6.30; `CN1Cc2ccccc2C12CCN(CC(=O)N1CCC(F)(F)CC1)CC2` [Example 156, 1-(4,4-difluoropiperidin-1-yl)-2-(2-methylspiro[isoindoline-1,4′-piperidine]-1′-yl)ethanone]: not above 6.30. For `CC(=O)OC(CN1CCC2(CC1)c1ccccc1CCN2C(C)=O)c1ccccc1` (centres unmarked) [Example 39, 2-(2-Acetyl-3,4-dihydro-2H-spiro[isoquinoline-1,4′-piperidine]-1′-yl)-1-phenylethyl acetate], the pKi is not above 6.30.

Values taken from patent US10407428B2, “Spiro-isoquinoline-1,4′-piperidine compounds having multimodal activity against pain” (ESTEVE PHARMACEUTICALS, S.A., priority 2014, dated 2019).
